Results published in US5928896A, “Polypeptides that include conformation-constraining groups which flank a protein--protein interaction site” (Virginia Commonwealth University, priority 1997, dated 1999).
Where a SMILES comes first, the peptide text is derived from it.

Experiments:
[1] = system: receptors of sweet tasting papillae; conditions: comparison; cited from earlier work
[2] = Preliminary studies of hypotensive peptide versus diltiazem (diastolic pressure, arrhythmia); assay type: in vivo, rat
Procedure: Dose: 60 to 120 μg per rat (5 to 10 μM).

| SMILES | Sweetness relative to sugar [1] | Effect on diastolic pressure [2] |
| --- | --- | --- |
| COC(=O)[C@H](Cc1ccccc1)NC(=O)[C@@H](N)CC(=O)O [aspartame] (H-Asp-Phe-OMe) | 160 times sweeter than sugar | – |
| COc1ccc([C@@H]2Sc3ccccc3N(CCN(C)C)C(=O)[C@@H]2OC(C)=O)cc1 [diltiazem] | – | small increase in the diastolic pressure |
